Patent US20220348590A1, “CYCLOOXYGENASE-2 INHIBITORS AND USES THEREOF” (The Board Institute, Inc., priority 2019, published 2022)

Target: T1, COX2 (Rattus norvegicus, UniProt P35355)
T1 construct: in-vitro autoradiography in rat brain slices; from tissue; host or cells: rat brain slices
T1 sequence (P35355 18-604): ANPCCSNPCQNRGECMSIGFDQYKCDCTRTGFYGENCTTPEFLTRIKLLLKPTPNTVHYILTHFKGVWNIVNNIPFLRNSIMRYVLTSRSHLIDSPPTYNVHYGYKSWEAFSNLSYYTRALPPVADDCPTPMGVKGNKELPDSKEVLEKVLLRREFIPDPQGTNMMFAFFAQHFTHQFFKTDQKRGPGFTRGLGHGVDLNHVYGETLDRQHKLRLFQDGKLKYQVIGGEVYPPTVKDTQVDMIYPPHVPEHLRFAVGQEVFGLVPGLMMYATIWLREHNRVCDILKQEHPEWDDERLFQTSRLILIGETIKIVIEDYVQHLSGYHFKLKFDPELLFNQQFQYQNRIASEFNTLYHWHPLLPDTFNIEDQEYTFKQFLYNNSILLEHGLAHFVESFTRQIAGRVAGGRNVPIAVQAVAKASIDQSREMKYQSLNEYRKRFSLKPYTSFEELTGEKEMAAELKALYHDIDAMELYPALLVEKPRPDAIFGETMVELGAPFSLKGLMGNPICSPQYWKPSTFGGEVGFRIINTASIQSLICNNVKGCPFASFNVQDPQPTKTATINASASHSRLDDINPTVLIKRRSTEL
Test: in-vitro autoradiography in rat brain slices (self-block)
Assay type: binding
Source text: Three ligands have been evaluated with in-vitro autoradiography in rat brain slices. Radiolabeling was accomplished via methylation of either a sulfinate precursor ([^11C]Rofecoxib), hydroxyl precursor ([^11C]MC1) or thiol precursor ([^11C]98) using [^11C]-methyl iodide and offers chemical flexibility for radiolabeling of future candidates. […] This translated into a ˜2-fold increase in COX2 specific binding in a rat brain slice in-vitro autoradiography. […] These properties enable us to better understand the contribution of potency and free fraction to the ligand's specific binding.
Three newly synthesized COX2 ligands were successfully radiolabeled using this strategy and first evaluated by in-vitro autoradiography in rat brain slices using self-block experiments (FIG. 5). […] [^11C]36 was also evaluated for specific binding using self-block experiments in human post-mortem brain tissues (globus pallidus) from three Huntington's disease (HD) patients (FIG. 6). COX2 protein levels were quantified using immunostaining and defined as high, medium and low, respectively.

In the case of CS(=O)(=O)c1ccc(-c2cncc(NCc3cccs3)n2)cc1 [Compound 98], the “increase in COX2 specific binding” value (rat brain slice in-vitro autoradiography, compared to MC1) is reported as ~2 fold and the specific binding (rat brain slices in vitro autoradiography, self-block, compared to earlier tracers) is reported as “increase in specific binding”.
